Results published in publication PMC8546421, “Molecular modelling of the FOXO4-TP53 interaction to design senolytic peptides for the elimination of senescent cancer cells” (EBioMedicine, 2021).
Where no end group is shown, it is not given here.

Experiments:
[1] = system: dividing A375 human melanoma cells; assay: Survival study, orthotopic A375 xenograft; format: in vivo, mouse; settings: local injection once daily for two days
From the text: Mice were aged between 3-8 months and 20-30 g in weight and were housed in specific pathogen free cages. Animals were randomly distributed among treatment groups by assigning mice within the same cage to different treatment regimens. To minimise confounders, mouse treatment order was randomised within each cage. Male and female mice were distributed between all treatment groups since the chemicals used were directly injected and are not metabolized. Researchers were not blinded to the group allocation, but all attempts were made to analyse the data without knowing treatment conditions. NOD.Cg-Prkdcscid Il2rgtm1Wjl/SzJ (NSG) were purchased from The Jackson Laboratory (IMSR Cat# JAX:005557, RRID:IMSR_JAX:005557). NOD.Cg-KitW-41J Tyr + Prkdcscid Il2rgtm1Wjl/ThomJ (NBSGW) were purchased from The Jackson Laboratory (IMSR Cat# JAX:026622, RRID:IMSR_JAX:026622). Immunocompromised mice used for these experiments were all in the NSG background; however, some mice were F1 generation of NSG x NBSGW, thus the brown coat colour as NBSGW mice have tyrosinase. Xenografts containing senescent cells were established by injecting A375-Luc/iRFP human melanoma cells which contained a luciferase expressing gene into immunocompromised NSG ears. Senescence was induced in the cells via doxorubicin treatment (40 nM) then resuspended in DMEM prior to injection. Each ear was then injected with 50 µL containing approximately 1,000,000 cells. The ears were treated once daily for two days with 50 µL of either 5 mg/mL peptide, or saline. To control for confounders, each mouse contained one ear treated with saline (control). For imaging, mice were injected with 3 mg luciferin intravenously and imaged before and after treatment. Transgenic mice (BrafCA, PtenloxP, Tyr::CreERT2) were purchased from The Jackson Laboratory (IMSR Cat# JAX:013590, RRID:IMSR_JAX:013590). These mice were maintained on a C57Bl6 background and all experimental mice contained Tyr::CreER with either Braf^CA/+, Pten^fx/+; Braf^CA/CA, Pten^fx/+, or Braf^CA/+, Pten^fx/fx. […] Hypopigmented melanomas sporadically formed over the next 3-5 months, typically on the back of the mouse. These melanomas were then directly injected with 100 µL of either 20 mg/mL ES2+10%DMSO, saline+10%DMSO, saline+10%Dabrafenib, or 20 mg/mL ES2+10%Dabrafenib. The researchers were not blinded to the experiment, but each mouse contained an internal control and all imaging was done with the same exposure times based upon control tissue. For survival analyses, either 750,000 or 25,000 A375-Luc/iRFP cells were injected intradermally into NSG mice. […] Mice were then monitored daily and allowed to age until a humane endpoint was reached according to our IACUC protocol, which in this case was tumours of 2 cm in size. […]

[2] = system: FOXO4 foci; assay: Immunofluorescence / quantitative imaging of FOXO4 foci; format: cell-based, human
Protocol: For all immunofluorescence experiments, cells were plated in 96-well plates (Cellvis P96-1.5P). At the end of each experiment, cells were washed once with PBS and then fixed with 4% paraformaldehyde for 10 minutes at room temperature. For experiments with caspase-3/7 staining, the Caspase-3/7 reagent (Thermo Scientific Cat# C10723) was added to live cells for 30 minutes prior to fixation. Fixed cells were washed with PBS and then permeabilized with ice-cold methanol at 4°C for 10 minutes. Cells were washed with PBS and then blocked for 30 minutes with 1% Bovine Serum Albumin (BSA) in PBS. […]
Quantitative imaging was performed as described with the following exceptions. […] Quantification of fluorescence intensities was performed using CellProfiler. Briefly, the DAPI staining was used to create a nuclear mask, and fluorescence intensities of the stained markers (FOXO4, CDKN2A, CDKN1A, and TP53) and FOXO4 foci were measured within the nuclear mask. DAPI fluorescence intensity was also quantified and used for DNA content measurements. […]

## PRKGGRRRRAWGRRRRRRRRRRRRRRAPRKRLTLA [ES2]
[1]; 25,000 A375 cells
  effect on survival time, in words: no effect on survival time
[1]; 750,000 A375 cells
  effect on survival time, in words: did not alter survival times
[2]; BODIPY-labelled ES2, A375 cells, 2 h
  concentration at which accumulation, co-localization with FOXO4 and disruption of focus formation observed: ≥ 8 µM
[2]; senescent A375 cells, ES2 8 µM for 4 h
  FOXO4 foci after ES2 addition: caused a loss of FOXO4 foci
